Data as given in paper PMC6026274, “A GLP-1:CCK fusion peptide harnesses the synergistic effects on metabolism of CCK-1 and GLP-1 receptor agonism in mice” (Appetite, 2018).
Starred links: 1 amine or outer side, 2 acyl side, 3 side chain; linkers in the order of their positions; H or OH if unused. Non-standard residues stand in square brackets, D forms with d. Residues, ends and D or L forms follow the SMILES beside them. Groups on a side chain read outwards from the residue. *: point of attachment. NMeF = CN[C@@H](Cc1ccccc1)C(=O)O; NH(2-Me-phenyl) = Cc1ccccc1N*; Nle = CCCC[C@H](N)C(=O)O; X1 = O=C(Cc1ccc(O)cc1)*; CO = O=C([*:1])[*:2]

How the values were obtained:
[1] = system: Sprague Dawley rats; assay: Kaolin intake in lean rats; type: in vivo; settings: overnight fasted lean rats, single i.p. injection; C2816 7 or 50 nmol/kg, cisplatin 10 mg/kg; vs vehicle; n = 9/group
Experimental: After the acclimation period, rats were given chow and kaolin diet (K50001, Research Diets, Billerica, MA) in adjacent separate compartments in a divided food hopper. Rats were randomized to treatment groups based on 24 h chow intake, 24 h kaolin intake and body weight (n = 9/group). […] Cisplatin (10 mg/kg; Sigma-Aldrich, St Louis, MO) was administered i.p. as a positive control. Chow and kaolin intake was recorded at 4 and 24 h. A final body weight was also recorded at 24 h.

[2] = system: diet-induced obese (DIO) C57BL6 mice; assay: Pharmacology study in DIO mice; type: in vivo; settings: AC3174 and AC170222 7 nmol/kg each, C2816 and (pGlu-Gln)-CCK-8/exendin-4 50 nmol/kg
Experimental: Obese male 10-week old C57BL6 mice (Jackson Laboratory) on high-fat diet (D12492, 60% kcal/fat, Research Diets) were single housed upon arrival and allowed to acclimate for 2 weeks. On day −3 mice were weighed and randomized to treatment groups (n = 8/group) based on body weight, with each mouse dosed once daily with two compounds or vehicle administered separately. […] Drug was administered once daily for 10 days intraperitoneally (5 mL/kg) 2 h prior to lights off.

[3] = terminal plasma, day 10, once daily i.p., mean ± SEM, n = 8, SEM

| SMILES | Food (chow) intake at 4 h and 24 h post-dose [1] | Body weight change ([2]; DIO mice, once daily i.p. for 10 days, n = 8/group) | Glucose ([2]; terminal non-fasted blood glucose, day 10, once daily i.p., mean ± SEM, n = 8, SEM) | ALT [2, 3] | AST [2, 3] | Amylase [2, 3] | Cholesterol [2, 3] | Insulin [2, 3] | Lipase [2, 3] | Triglycerides [2, 3] |
| --- | --- | --- | --- | --- | --- | --- | --- | --- | --- | --- |
| N.N.[Cl][Pt][Cl] [cisplatin, Cisplatin] | similarly reduced food intake as high dose C2816 | – | – | – | – | – | – | – | – | – |
| CCCC[C@H](NC(=O)Cc1ccc(O)cc1)C(=O)NCC(=O)N[C@@H](Cc1c[nH]c2ccccc12)C(=O)N[C@@H](CCCCNC(=O)Nc1ccccc1C)C(=O)N[C@@H](CC(=O)O)C(=O)N(C)[C@@H](Cc1ccccc1)C(N)=O [AC170222] (X1-[Nle]GWK([CO-NH(2-Me-phenyl)])D[NMeF]-NH2) | – | did not affect | 280 ± 11 mg/dL | 86 ± 32 U/L | 95 ± 27 U/L | 2759 ± 75 U/L | 192 ± 28 mg/dL | 11.3 ± 4.1 ng/mL | 77 ± 49 U/L | 114 ± 6 mg/dL |
